Laboratory results taken from US8952024B2, “Herbicidal pyrimidone derivatives” (E I du Pont de Nemours and Company, priority 2009, dated 2015).

Key:
Assay in all cases: Test B pre-/postemergence plant response
Assay type in all cases: in vivo
[1] = system: Italian ryegrass (Lolium multiflorum); conditions: Postemergence
Method in brief: (§1)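 Seeds sown in loam–sand blend were treated preemergence, and plants at 2–18 cm (1- to 4-leaf stage) in peat-based medium were treated postemergence; compounds were formulated in non-phytotoxic solvent with surfactant. After 13–15 days in greenhouse, response was visually rated against controls, 0 (no effect) to 100 (complete control).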

[2] = system: Surinam grass (Brachiaria decumbens); conditions: Postemergence, 31 g ai/ha; 0 to 100 scale (0 no effect, 100 complete control)
Method in brief: as §1

[3] = system: bermudagrass (Cynodon dactylon); conditions: for Plant response rating, Bermudagrass: Postemergence
Method in brief: as §1

[4] = system: blackgrass (Alopecurus myosuroides); conditions: for Plant response rating, Blackgrass: Postemergence
Method in brief: as §1

[5] = system: cocklebur (Xanthium strumarium); conditions: Postemergence
Method in brief: as §1

[6] = system: downy bromegrass (Bromus tectorum); conditions: for Plant response rating, Bromegrass, Downy: Postemergence
Method in brief: as §1

kochia (Kochia scoparia) = conditions: Postemergence
Method in brief: as §1

[7] = system: large crabgrass (Digitaria sanguinalis); conditions: Postemergence
Method in brief: as §1

[8] = system: morningglory (Ipomoea coccinea); conditions: Postemergence
Method in brief: as §1

[9] = system: ragweed (common ragweed, Ambrosia elatior); conditions: Postemergence
Method in brief: as §1

[10] = system: wheat (Triticum aestivum); conditions: Postemergence
Method in brief: as §1

wild oat (Avena fatua) = conditions: Postemergence
Method in brief: as §1

[11] = system: woolly cupgrass (Eriochloa villosa); conditions: Postemergence
Method in brief: as §1

[12] = 31 g ai/ha, 0 to 100 scale (0 no effect, 100 complete control)
[13] = 125 g ai/ha, scale 0 to 100 (0 no effect, 100 complete control)
[14] = 250 g ai/ha, scale 0 to 100 (0 no effect, 100 complete control), 13 to 15 days
[15] = 62 g ai/ha, postemergence, 0 is no effect, 100 is complete control, 13 to 15 days

O=C1CCCC(O)=C1C(=O)c1cnc(-c2cccc(F)c2)n(C2CCCCC2)c1=O [Compound 187]
Plant response rating, Ryegrass, Italian [1, 12]: 0 | Plant response rating, Ryegrass, Italian [1, 13]: 10 | Plant response rating, Ryegrass, Italian [1, 14]: 30 | Plant response rating, Surinam Grass [2]: 65 | Bermudagrass plant response rating (0 to 100 scale) [3, 15]: 85 | Plant response rating, Bermudagrass [3, 12]: 75 | Plant response rating, Bermudagrass [3, 13]: 100 | Plant response rating, Bermudagrass [3, 14]: 100 | Blackgrass plant response rating (0 to 100 scale) [4, 15]: 0 | Plant response rating, Blackgrass [4, 12]: 0 | Plant response rating, Blackgrass [4, 13]: 5 | Plant response rating, Blackgrass [4, 14]: 5 | Plant response rating, Cocklebur [5, 12]: 100 | Plant response rating, Cocklebur [5, 13]: 100 | Plant response rating, Cocklebur [5, 14]: 100 | Bromegrass, Downy plant response rating (0 to 100 scale) [6, 15]: 30 | Plant response rating, Bromegrass, Downy [6, 12]: 5 | Plant response rating, Bromegrass, Downy [6, 13]: 35 | Plant response rating, Bromegrass, Downy [6, 14]: 40 | Plant response rating, Kochia (kochia (Kochia scoparia); [12]): 40 | Plant response rating, Kochia (kochia (Kochia scoparia); [13]): 70 | Plant response rating, Kochia (kochia (Kochia scoparia); [14]): 80 | Plant response rating, Crabgrass, Large [7, 12]: 85 | Plant response rating, Crabgrass, Large [7, 13]: 100 | Plant response rating, Crabgrass, Large [7, 14]: 100 | Plant response rating, Morningglory [8, 12]: 80 | Plant response rating, Morningglory [8, 13]: 100 | Plant response rating, Morningglory [8, 14]: 100 | Plant response rating, Ragweed [9, 12]: 95 | Plant response rating, Ragweed [9, 13]: 100 | Plant response rating, Ragweed [9, 14]: 100 | Plant response rating, Wheat [10, 12]: 0 | Plant response rating, Wheat [10, 13]: 5 | Plant response rating, Wheat [10, 14]: 5 | Plant response rating, Oat, Wild (wild oat (Avena fatua); [12]): 10 | Plant response rating, Oat, Wild (wild oat (Avena fatua); [13]): 45 | Plant response rating, Oat, Wild (wild oat (Avena fatua); [14]): 45 | Plant response rating, Cupgrass, Woolly [11, 12]: 80 | Plant response rating, Cupgrass, Woolly [11, 13]: 85 | Plant response rating, Cupgrass, Woolly [11, 14]: 95
